Like-named read-outs stand apart in the source and are kept apart here.
Assays:
cleaved Caspase 3 = experiment: Western blot, cleaved Caspase 3 in MCF-7 cells; type: cell-based; details: MCF-7, 48 h, dose-dependent
Procedure: (§1) Following a 48 h treatment, cellular proteins were extracted using RIPA cell lysis buffer containing protease and phosphatase inhibitor cocktail. The protein concentration was assessed by using a BCA assay. Subsequently, equal amounts of these proteins were loaded onto an SDS-PAGE gel and transferred onto a PVDF membrane. The protein-loaded membrane was then blocked using a commercial blocking solution (Beyotime, China) and sequentially incubated with primary and secondary antibodies. Protein bands were visualized using an ECL chemiluminescence kit and quantified using ImageJ software.

PARP1 = PARP1 (Homo sapiens, UniProt P09874); experiment: In vitro PARP1 enzymatic activity (ELISA, biotinylated NAD+, luminescence); type: biochemical
Chain of PARP1 (P09874 whole entry): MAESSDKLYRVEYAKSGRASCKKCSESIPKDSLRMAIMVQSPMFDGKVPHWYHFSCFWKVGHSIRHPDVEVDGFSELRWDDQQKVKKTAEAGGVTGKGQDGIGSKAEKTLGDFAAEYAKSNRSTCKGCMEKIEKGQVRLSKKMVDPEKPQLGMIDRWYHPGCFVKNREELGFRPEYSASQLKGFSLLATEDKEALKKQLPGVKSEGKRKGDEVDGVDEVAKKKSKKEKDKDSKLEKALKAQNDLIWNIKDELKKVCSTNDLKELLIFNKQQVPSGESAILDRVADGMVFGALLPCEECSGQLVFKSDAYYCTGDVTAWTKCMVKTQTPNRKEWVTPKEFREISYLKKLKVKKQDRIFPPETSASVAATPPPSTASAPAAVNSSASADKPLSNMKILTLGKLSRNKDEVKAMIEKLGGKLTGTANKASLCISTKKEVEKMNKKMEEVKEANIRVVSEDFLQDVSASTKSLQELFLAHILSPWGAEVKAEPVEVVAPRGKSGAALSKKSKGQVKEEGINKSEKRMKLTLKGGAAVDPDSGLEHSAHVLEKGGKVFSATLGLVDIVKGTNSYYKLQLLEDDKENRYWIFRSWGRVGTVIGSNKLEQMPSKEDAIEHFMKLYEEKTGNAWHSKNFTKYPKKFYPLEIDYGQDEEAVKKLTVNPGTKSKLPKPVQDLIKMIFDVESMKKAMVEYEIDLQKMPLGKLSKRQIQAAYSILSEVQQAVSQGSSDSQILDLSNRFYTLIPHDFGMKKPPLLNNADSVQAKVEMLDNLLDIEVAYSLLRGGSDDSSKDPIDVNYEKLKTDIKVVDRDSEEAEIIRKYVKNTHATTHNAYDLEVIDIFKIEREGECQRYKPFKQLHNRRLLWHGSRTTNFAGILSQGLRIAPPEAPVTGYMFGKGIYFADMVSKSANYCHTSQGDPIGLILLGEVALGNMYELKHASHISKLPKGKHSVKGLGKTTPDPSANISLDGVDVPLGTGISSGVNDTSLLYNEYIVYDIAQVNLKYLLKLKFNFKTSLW
Procedure: The inhibition of the tested compounds on PARP1 enzymatic activity was determined by ELISA in 96-well plates. Each well was precoated with histone (20 μg/mL) diluted in 100 μL of PBS buffer (10 mM NaH2PO4, 100 mM Na2HPO4, 150 mM NaCl, pH 7.4) by incubation at 4 °C overnight. […] The reaction was initiated by the addition of 20 μL of PARP1 (50 ng/well) at 30 °C for 1 h. Then the reaction solution was added to 50 μL of streptavidin conjugated HRP. The assay was performed at 30 °C for an additional 30 min. Finally, 100 μL of solution (H2O2 and luminol in citrate buffer 0.1 M, pH 5.4) was added and luminescent signal was measured using a multiwell spectrophotometer (Molecular Devices SpectraMax M5 microplate reader).

BRD4 BD2 = BRD4 BD2 (Homo sapiens, UniProt O60885); experiment: BRD TR-FRET assay, BRD4 BD2; type: binding
Procedure: (§2) The assay was performed by TR-FRET technology using a BRD and its corresponding ligand (BET). The TR-FRET signal from the assay is correlated with the amount of ligand binding to the bromodomain. All of the binding reactions were conducted at room temperature. The 20 μL reaction mixture in Assay Buffer contains either bromodomains, BET Ligand, and the indicated amount of inhibitor. For the negative control (blank), 5 μL of the assay buffer was added instead of the BET ligand. The reaction mixture was incubated for 120 min. After the incubation with the ligand, the TR-FRET signal was measured using a Tecan Infinite M1000 plate reader.

MCF-7 cells [1] = experiment: Cell apoptosis detection (Annexin V-FITC/PI flow cytometry); type: cell-based; details: 2 μM, MCF-7, dose-dependent
Procedure: Cell apoptosis was assessed using the Annexin V-FITC/PI apoptosis detection kit. Following a 24 h treatment, cells were harvested and rinsed with PBS. Subsequently, the gathered cells were stained in accordance with the manufacturer’s guidelines and analyzed using BD FACSCelesta flow cytometry (New York, USA). FlowJo_V10 software was employed for data analysis.

MCF-7 cells [2] = experiment: Alkaline comet assay; type: cell-based; details: 4 and 8 μM, 48 h, MCF-7, compared to control
Procedure: The Alkaline comet assay was executed in accordance with the manufacturer’s instructions. Following a 48 h treatment period, cells were harvested and combined with low melting point agarose. The resulting mixture was layered onto slides coated with agarose as a normal melting point agarose. Subsequently, the cells on the slides were lysed overnight at 4 °C and then unwound in an alkaline unwinding solution for 30 min at room temperature. Following electrophoresis, the samples were neutralized and stained with propidium iodide. The outcomes were visualized using a confocal microscope (Nikon A1 HD25), with three random images captured from each slide.

MDA-MB-231 cells = experiment: Cell viability (MTT), MDA-MB-231; type: cell-based; details: Homo sapiens, MDA-MB-231, 96 h; 4-day treatment, wild-type BRCA
Procedure: (§3) MDA-MB-231, MDA-MB-436, and MCF-7 cells were seeded into 96-well plates with the number of 5 × 10^3 in each cell and allowed to incubate for 24 h. Subsequently, various concentrations of the test compounds (ranging from 100 to 0.78 μM with twice gradient dilution) were introduced. After 4 days of incubation, MTT solution was applied, and the cells were incubated for an additional 4 h. Following the removal of the supernatant, the violet crystals were dissolved in 200 μL of DMSO, and the absorbance was measured at 570 nm.

Bcl-2 = experiment: Western blot, Bcl-2 in MCF-7 cells; type: cell-based; details: MCF-7, 48 h, dose-dependent
Procedure: as §1

MCF-7 cells [3] = experiment: Cell cycle detection (PI flow cytometry); type: cell-based; details: for cell cycle G0/G1 / cell cycle G2/M / cell cycle S: 24 h
Procedure: Cell cycle analysis was performed using a PI cell cycle detection kit. Following a 24 h treatment, cells were gathered, fixed with 75% ethanol, and stained with PI according to the manufacturer’s protocol. Subsequently, cell cycle analysis was detected using BD FACSCelesta flow cytometry (New York, USA). The obtained data were then subjected to analysis using FlowJo_V10.

γH2AX = experiment: Western blot, γH2AX in MCF-7 cells; type: cell-based; details: MCF-7, 48 h
Procedure: as §1

[4] = tested on: HEK293T (human embryonic kidney cell); experiment: Cytotoxicity against non-tumor cells, HEK293T; type: cell-based; details: HEK-293T, 96 h, 4-day treatment
From the text: To further establish HF4’s advantage, we employed a web-based in silico cytotoxicity prediction tool (https://www.way2drug.com/clc-pred/index.php), encompassing the prediction against 391 tumor and 47 normal human cell lines,[47] to predict the cytotoxicity of HF4 against nontumor cell lines. […] The absence of nontumor cell lines among the top-ranked ones indicates a limited impact on normal cell line. When threshold of ≥0.15 was applied, among 50 predictions, only a single normal cell line (HEK293) was present in the list, with a predicted probability value below 0.2. We further reinforced the safety profile of HF4 by conducting experimental safety assessments on two normal cell lines. […] In summary, we conducted both computational safety predictions and experimental evaluations on normal cell lines to strengthen the assurance of HF4’s safety profile.
Cytotoxicity of HF4 against non-tumor cells
Figure S6. Cytotoxicity of HF4 against non-tumor cells during a 4-day treatment.
(1 picture or pasted object on this page, not shown here)

E2F2 = experiment: Western blot, E2F2 in MCF-7 cells; type: cell-based; details: MCF-7, 48 h
Procedure: as §1

BRD1 = BRD1 (Homo sapiens, UniProt O95696); experiment: BRD TR-FRET assay, BRD1; type: binding
Chain of BRD1 (O95696 whole entry): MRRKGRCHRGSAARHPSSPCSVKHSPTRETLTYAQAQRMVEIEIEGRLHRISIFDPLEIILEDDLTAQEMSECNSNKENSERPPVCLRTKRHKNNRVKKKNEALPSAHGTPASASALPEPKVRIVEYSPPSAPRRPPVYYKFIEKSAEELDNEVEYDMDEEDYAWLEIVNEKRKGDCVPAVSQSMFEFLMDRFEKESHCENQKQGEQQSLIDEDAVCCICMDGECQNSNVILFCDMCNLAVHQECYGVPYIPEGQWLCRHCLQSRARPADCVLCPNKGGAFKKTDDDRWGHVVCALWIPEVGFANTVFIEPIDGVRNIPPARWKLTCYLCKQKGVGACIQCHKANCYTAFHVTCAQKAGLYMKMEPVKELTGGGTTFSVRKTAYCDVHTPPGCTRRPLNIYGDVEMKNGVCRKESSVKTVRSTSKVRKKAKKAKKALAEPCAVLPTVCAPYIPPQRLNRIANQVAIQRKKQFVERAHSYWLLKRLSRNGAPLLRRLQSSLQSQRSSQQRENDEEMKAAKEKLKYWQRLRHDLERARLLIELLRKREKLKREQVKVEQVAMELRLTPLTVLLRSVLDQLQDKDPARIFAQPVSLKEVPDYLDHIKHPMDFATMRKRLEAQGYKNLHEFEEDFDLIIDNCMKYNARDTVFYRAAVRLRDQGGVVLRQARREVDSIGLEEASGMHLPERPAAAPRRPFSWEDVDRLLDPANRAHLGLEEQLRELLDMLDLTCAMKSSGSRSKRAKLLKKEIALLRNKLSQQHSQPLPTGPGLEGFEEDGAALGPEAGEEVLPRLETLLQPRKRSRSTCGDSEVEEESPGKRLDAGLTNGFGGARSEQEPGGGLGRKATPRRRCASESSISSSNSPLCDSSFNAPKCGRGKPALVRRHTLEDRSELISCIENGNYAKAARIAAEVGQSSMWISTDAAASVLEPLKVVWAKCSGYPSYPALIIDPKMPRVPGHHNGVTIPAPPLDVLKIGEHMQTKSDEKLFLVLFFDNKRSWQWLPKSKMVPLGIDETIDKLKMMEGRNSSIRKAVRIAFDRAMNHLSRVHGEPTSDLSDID
Procedure: as §2

BRD3 = BRD3 (Homo sapiens, UniProt Q15059); experiment: BRD TR-FRET assay, BRD3; type: binding
Chain of BRD3 (Q15059 whole entry): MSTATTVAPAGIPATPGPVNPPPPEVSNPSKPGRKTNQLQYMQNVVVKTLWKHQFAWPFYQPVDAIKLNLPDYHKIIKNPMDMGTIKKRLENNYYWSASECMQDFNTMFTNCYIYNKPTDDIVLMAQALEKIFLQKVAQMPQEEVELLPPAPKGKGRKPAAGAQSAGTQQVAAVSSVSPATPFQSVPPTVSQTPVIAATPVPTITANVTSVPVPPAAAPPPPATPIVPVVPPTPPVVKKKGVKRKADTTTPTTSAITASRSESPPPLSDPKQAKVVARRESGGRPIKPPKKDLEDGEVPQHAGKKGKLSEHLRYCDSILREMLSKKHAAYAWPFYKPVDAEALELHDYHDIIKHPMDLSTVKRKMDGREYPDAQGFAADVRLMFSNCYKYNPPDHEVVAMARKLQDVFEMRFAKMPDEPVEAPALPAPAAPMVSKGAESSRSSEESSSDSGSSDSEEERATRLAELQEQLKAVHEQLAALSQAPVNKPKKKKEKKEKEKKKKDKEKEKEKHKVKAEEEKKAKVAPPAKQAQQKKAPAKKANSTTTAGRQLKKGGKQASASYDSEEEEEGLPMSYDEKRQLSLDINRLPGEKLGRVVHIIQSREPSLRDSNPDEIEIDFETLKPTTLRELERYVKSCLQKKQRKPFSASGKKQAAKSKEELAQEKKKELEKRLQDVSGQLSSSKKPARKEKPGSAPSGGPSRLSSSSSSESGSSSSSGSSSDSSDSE
Procedure: as §2

MCF-7 cells [5] = experiment: Cell viability (MTT), MCF-7; type: cell-based; details: Homo sapiens, MCF7, 96 h; 4-day treatment, wild-type BRCA
Procedure: as §3

`CCc1cc2cc(NS(=O)(=O)c3ccc(F)c(C)c3)ccc2[nH]c1=O` [HF4, N-(3-ethyl-2-oxo-1,2-dihydroquinolin-6-yl)-4-fluoro-3-methylbenzenesulfonamide] was tested, and the “cleaved Caspase 3 expression” value (cleaved Caspase 3) was “upregulating”, the IC50 (PARP1) was 2.02 ± 0.683 µM and the “decrease in effectiveness against PARP1, tricyclic to bicyclic scaffold” value (PARP1; HF4 vs HF1) was “approximately 20 fold”. For the same compound, the “ligand efficiency index against PARP1” value (PARP1; pIC50 divided by HAC, HAC = 25) was 0.23, the IC50 (PARP1; value of the text) was about 2 µM and the IC50 (BRD4 BD2) was 0.801 ± 0.238 µM. For the same compound, the apoptotic cells (MCF-7 cells [1]) was “substantial increase in apoptotic cells”, the “DNA damage (comet tail length, percentage of damaged DNA)” value (MCF-7 cells [2]) was “increase in both tail length and the percentage of damaged DNA” and the IC50 (MDA-MB-231 cells) was 2.2 µM. The Bcl-2 expression (Bcl-2) was “significantly downregulated”, the “effect on cell cycle” value (MCF-7 cells [3]) was “halted the cell cycle at the G0/G1 phase” and the “cell cycle G0/G1” value (MCF-7 cells [3]; 2 μM) was 83.0%. The “cell cycle G2/M” value (MCF-7 cells [3]; 2 μM) was 0.51%, the “cell cycle S” value (MCF-7 cells [3]; 2 μM) was 17.0% and the “cell cycle G0/G1” value (MCF-7 cells [3]; 4 μM) was 89.0%. For the same compound, the “cell cycle G2/M” value (MCF-7 cells [3]; 4 μM) was 2.96%, the “cell cycle S” value (MCF-7 cells [3]; 4 μM) was 9.42% and the “cell cycle G0/G1” value (MCF-7 cells [3]; 8 μM) was 92.0%. For the same compound, the “cell cycle G2/M” value (MCF-7 cells [3]; 8 μM) was 4.55%, the “cell cycle S” value (MCF-7 cells [3]; 8 μM) was 7.63% and the “levels of γH2AX” value (γH2AX) was “dose-dependent upregulation”. For the same compound, the IC50 [4] was 21.5 ± 7.4 µM, the E2F2 expression (E2F2) was “suppressed” and the IC50 (BRD1) was 55.6 ± 13.9 µM. The IC50 (BRD3) was 4.79 ± 1.36 µM and the IC50 (MCF-7 cells [5]) was 2.1 µM.
